Data taken from patent US8278293B2, “Diazo bicyclic Smac mimetics and the uses thereof” (The Regents of the University of Michigan, priority 2007, dated 2012).
pIC50: −log10 of the molar value. Read-outs that look alike come from different tables or passages of the source.

Legend:
[1] = target: XIAP BIR3 (Homo sapiens, UniProt P98170); test: Fluorescence polarization (FP) based competitive binding assay to XIAP BIR3; design: human XIAP (residues 241-356) fused to His-tag; His-tag; conditions: for pIC50: FP binding, XIAP BIR3 30 nM, SM5F 5 nM; for binding affinity to XIAP BIR3 compared with SM-122: relative to carbocyclic analog SM-122
XIAP BIR3, sequence (P98170 241-356): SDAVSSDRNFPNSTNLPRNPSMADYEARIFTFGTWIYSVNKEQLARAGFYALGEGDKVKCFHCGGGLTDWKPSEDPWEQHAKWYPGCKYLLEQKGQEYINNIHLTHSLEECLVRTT

[2] = test system: SK-OV-3 ovarian cancer cell line; test: Cell growth inhibition, WST-8 assay, SK-OV-3; type: cell-based; conditions: for pIC50: Homo sapiens, SK-OV-3, 96 h, 4 days, WST-8, read-out: SK-OV-3 IC50; for cellular activity in SK-OV-3 compared with SM-122: relative to SM-122
Experimental: (§1) The effect of the compounds of the present invention on the growth of various cancer cell lines was tested. Cells were seeded in 96-well flat bottom cell culture plates at a density of 3000 cells/well with a tested compound and incubated at 37° C. in an atmosphere of 95% air and 5% CO2 for 4 days. […] Dojindo Molecular Technologies, Inc., Gaithersburg, Md.). […] The absorbance of the samples was measured at 450 nm using a ULTRA Tecan Reader (Molecular Device). […] The ability of SM-406 to inhibit cell growth as a single agent was tested in the MDA-MB-231 breast cancer cell line, SK-OV-3 and OVCAR-4 ovarian cancer cell lines and SK-MeI-2 melanoma cancer cell line. Cells were treated for 4 days. Cell growth was determined using a WST-based assay.

[3] = test system: MDA-MB-231 human breast cancer cell line; test: Cell growth inhibition, WST-8 assay, MDA-MB-231; type: cell-based; conditions: for pIC50 / IC50: Homo sapiens, MDA-MB-231, 96 h; for pIC50: 4 days, WST-8, read-out: MDA-MB-231 IC50; for IC50: read-out: MDA-MB-231 IC50 (μM); for cellular activity in MDA-MB-231 compared with SM-122: relative to SM-122
Experimental: as §1

Structure (SMILES) | pIC50 [1] | pIC50 [2] | pIC50 [3] | binding affinity to XIAP BIR3 compared with SM-122 [1] | cellular activity in SK-OV-3 compared with SM-122 [2] | IC50 [3] [µM] | cellular activity in MDA-MB-231 compared with SM-122 [3]
CN[C@@H](C)C(=O)N[C@H]1CN(C(=O)CCc2ccccc2)CC[C@H]2CC[C@@H](C(=O)NC(c3ccccc3)c3ccccc3)N2C1=O [SM-408] | > 6.00 | > 6.00 | > 6.00 |  |  |  | 
CN[C@@H](C)C(=O)N[C@H]1CN(C(=O)CC(C)(C)C)CC[C@H]2CC[C@@H](C(=O)NC(c3ccccc3)c3ccccc3)N2C1=O [SM-415] | > 6.00 | > 6.00 | > 6.00 |  |  |  | 
CN[C@@H](C)C(=O)N[C@H]1CN(C(=O)C[C@@H]2CCOC2)CC[C@H]2CC[C@@H](C(=O)NC(c3ccccc3)c3ccccc3)N2C1=O [SM-419] | > 6.00 | > 5.00 | > 5.00 |  |  |  | 
CN[C@@H](C)C(=O)N[C@H]1CN(C(=O)CCCc2ccccc2)CC[C@H]2CC[C@@H](C(=O)NC(c3ccccc3)c3ccccc3)N2C1=O [SM-421] | > 6.00 | > 6.00 | > 6.00 |  |  |  | 
CN[C@@H](C)C(=O)N[C@H]1CN(C(=O)Cc2ccccc2)CC[C@H]2CC[C@@H](C(=O)NC(c3ccc(F)cc3)c3ccc(F)cc3)N2C1=O [SM-403] | > 6.00 | > 6.00 | > 6.00 |  |  |  | 
CN[C@@H](C)C(=O)N[C@H]1CN(C(=O)C[C@H]2CC[C@H](O)C2)CC[C@H]2CC[C@@H](C(=O)NC(c3ccccc3)c3ccccc3)N2C1=O [SM-416] | > 6.00 | > 5.00 | > 5.00 |  |  |  | 
CCCC(=O)N1CC[C@H]2CC[C@@H](C(=O)NC(c3ccccc3)c3ccccc3)N2C(=O)[C@@H](NC(=O)[C@H](C)NC)C1 [SM-409] | > 6.00 | > 6.00 | > 6.00 |  |  |  | 
CN[C@@H](C)C(=O)N[C@H]1CN(Cc2ccccc2)CC[C@H]2CC[C@@H](C(=O)NC(c3ccccc3)c3ccccc3)N2C1=O [YP-246P] |  |  |  | less than that of SM-122 | less than that of SM-122 | > 1 | less than that of SM-122
CN[C@@H](C)C(=O)N[C@H]1CNCC[C@H]2CC[C@@H](C(=O)NC(c3ccccc3)c3ccccc3)N2C1=O [SM-227] |  | > 5.00 | > 5.00 |  |  |  | 
CN[C@@H](C)C(=O)N[C@H]1CN(C)CC[C@H]2CC[C@@H](C(=O)NC(c3ccccc3)c3ccccc3)N2C1=O [YP-245P3] |  |  |  | less than that of SM-122 | less than that of SM-122 | > 1 | less than that of SM-122
CN[C@@H](C)C(=O)N[C@H]1CN(C(=O)Cc2ccc(F)cc2F)CC[C@H]2CCC(C(=O)NC(c3ccccc3)c3ccccc3)N2C1=O (stereo partly shown) [SM-356] | > 6.00 |  | > 6.00 |  |  |  | 
CN[C@@H](C)C(=O)N[C@H]1CN(C(C)=O)CC[C@H]2CCC(C(=O)NC(c3ccccc3)c3ccccc3)N2C1=O (stereo partly shown) [SM-330] |  |  |  |  |  | < 1 | 

Now from value to molecule, other results behind:

pIC50 [1] | pIC50 [2] | pIC50 [3] | Structure (SMILES) | binding affinity to XIAP BIR3 compared with SM-122 [1] | cellular activity in SK-OV-3 compared with SM-122 [2] | IC50 [3] [µM] | cellular activity in MDA-MB-231 compared with SM-122 [3]
> 6.00 | > 6.00 | > 6.00 | CN[C@@H](C)C(=O)N[C@H]1CN(C(=O)CCC(C)C)CC[C@H]2CC[C@@H](C(=O)NC(c3ccccc3)c3ccccc3)N2C1=O [SM-420] |  |  |  | 
> 6.00 | > 6.00 | > 6.00 | CN[C@@H](C)C(=O)N[C@H]1CN(C(=O)CC(C)C)CC[C@H]2CC[C@@H](C(=O)NC(c3ccc(F)cc3)c3ccc(F)cc3)N2C1=O [SM-210] |  |  |  | 
> 6.00 | > 5.00 | > 5.00 | CN[C@@H](C)C(=O)N[C@H]1CN(C(=O)CC(C)C)CC[C@H]2CC[C@@H](C(=O)N[C@H]3CCc4ccccc43)N2C1=O [SM-425] |  |  |  | 
> 6.00 | > 6.00 | > 6.00 | CN[C@@H](C)C(=O)N[C@H]1CN(C(=O)CCCC(C)C)CC[C@H]2CC[C@@H](C(=O)NC(c3ccccc3)c3ccccc3)N2C1=O [SM-422] |  |  |  | 
> 5.00 | > 4.00 | > 4.00 | CN[C@@H](C)C(=O)N[C@H]1CN(C(=O)CC(C)C)CC[C@H]2CC[C@@H](C(=O)NC3CCCCC3)N2C1=O [SM-423] |  |  |  | 
> 6.00 | > 5.00 | > 5.00 | CN[C@@H](C)C(=O)N[C@H]1CN(C(=O)CC(C)C)CC[C@H]2CC[C@@H](C(=O)NCc3ccccc3-c3ccccc3)N2C1=O [SM-433] |  |  |  | 
